Earlier results on nine molecules are cited in PMC6683083, “Lupin Peptide T9 (GQEQSHQDEGVIVR) Modulates the Mutant PCSK9^D374Y Pathway: in vitro Characterization of its Dual Hypocholesterolemic Behavior” (Nutrients, 2019).

Read-outs that look alike come from different tables or passages of the source.

For one series, the target named is T1, HMGCoAR (Homo sapiens, UniProt P04035).
T1 construct: purchased Sigma (Sigma-Aldrich, St. Louis, MO, USA)
T1 sequence (P04035 426-888 limits assumed): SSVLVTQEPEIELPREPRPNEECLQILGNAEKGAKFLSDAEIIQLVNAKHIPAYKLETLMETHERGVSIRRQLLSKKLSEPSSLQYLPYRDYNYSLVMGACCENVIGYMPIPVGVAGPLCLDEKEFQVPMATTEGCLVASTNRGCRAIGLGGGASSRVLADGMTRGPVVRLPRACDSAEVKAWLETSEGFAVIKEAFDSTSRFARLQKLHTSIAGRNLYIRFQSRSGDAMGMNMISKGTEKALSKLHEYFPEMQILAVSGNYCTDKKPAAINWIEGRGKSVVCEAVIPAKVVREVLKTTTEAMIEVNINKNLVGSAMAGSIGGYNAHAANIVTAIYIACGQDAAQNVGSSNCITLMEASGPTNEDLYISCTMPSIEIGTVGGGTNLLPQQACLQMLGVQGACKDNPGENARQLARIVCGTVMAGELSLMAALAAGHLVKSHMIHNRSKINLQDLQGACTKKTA
Also noted: method as in 4 sources, ref [16],[18] = [16]; doi:10.1016/j.jff.2017.02.009; 16. Zanoni C. Aiello G. Arnoldi A. Lammi C. Investigations on the hypocholesterolaemic activity of LILPKHSDAD and LTFPGSAED, two peptides from lupin beta-conglutin: Focus on LDLR and PCSK9 pathways J || [18]; doi:10.1111/jfbc.12524; 18. Lammi C. Zanoni C. Arnoldi A. Aiello G. YDFYPSSTKDQQS (P3), a peptide from lupin protein, absorbed by Caco-2 cells, modulates cholesterol metabolism in HepG2 cells via SREBP-1 activation J. Food B ||| ref [19],[20],[21] = [19]; doi:10.1016/j.jff.2015.02.021; 19. Lammi C. Zanoni C. Arnoldi A. IAVPGEVA, IAVPTGVA, and LPYP, three peptides from soy glycinin, modulate cholesterol metabolism in HepG2 cells through the activation of the LDLR-SREBP2 pathway J. Fu || [20]; PMID 26310992; doi:10.1021/acs.jafc.5b03497; 20. Lammi C. Zanoni C. Vistoli G. Arnoldi A. Two Peptides from Soy β-Conglycinin Induce a Hypocholesterolemic Effect in HepG2 Cells by a Statin-Like Mechanism: Comparative in Vitro and in Silico Model || [21]; PMID 26580610; doi:10.3390/ijms161126029; 21. Lammi C. Zanoni C. Arnoldi A. Three Peptides from Soy Glycinin Modulate Glucose Metabolism in Human Hepatic HepG2 Cells Int. J. Mol. Sci. 2015 16 27362 27370 10.3390/ijms161126029 26580610 PMC4661 ||| ref [6] = [6]; PMID 25690031; doi:10.3390/ijms16024150; 6. Soares R.A. Mendonça S. De Castro L. Menezes A.C. Arêas J.A. Ívini Major Peptides from Amaranth (Amaranthus cruentus) Protein Inhibit HMG-CoA Reductase Activity Int. J. Mol. Sci. 2015 16 4150 4160 ||| ref [4],[16] = [4]; PMID 24972343; doi:10.1021/jf500795b; 4. Lammi C. Zanoni C. Scigliuolo G.M. D’Amato A. Arnoldi A. Lupin Peptides Lower Low-Density Lipoprotein (LDL) Cholesterol through an Up-regulation of the LDL Receptor/Sterol Regulatory Element Bindin || [16]; doi:10.1016/j.jff.2017.02.009; 16. Zanoni C. Aiello G. Arnoldi A. Lammi C. Investigations on the hypocholesterolaemic activity of LILPKHSDAD and LTFPGSAED, two peptides from lupin beta-conglutin: Focus on LDLR and PCSK9 pathways J. The conditions noted are these: cited from earlier work.

The test system of another series is PCSK9. The conditions noted are these: cited from earlier work. From the text: It is important to observe that some natural PCSK9 mutations affect its affinity for the LDLR. In particular, the gain of function (GOF) mutant D374Y binds more avidly to the LDLR than the wild-type (WT) PCSK9. The consequence is an approximately tenfold increased capacity of reducing the LDLR protein level. Accordingly, subjects with this PCSK9^D374Y mutation have very high LDL-C levels and are at high risk of atherosclerosis. In light of these observations, PCSK9 is currently considered a new target for the treatment of hypercholesterolemia, and the development of novel PCSK9 inhibitor ... || In this panorama, lupin protein hydrolysates, obtained by treating the proteins with pepsin and trypsin, show synergistic hypocholesterolemic effects through the modulation of both HMGCoAR and PCSK9 targets. […] Furthermore, these lupin hydrolysates impair the protein–protein interaction (PPI) betwe ... || Taking into account all this information, it is possible to affirm that there is an interesting similarity between the hypocholesterolemic behaviors of T9 and P5.

Series [1] has as its system LDL uptake by HepG2 cells. The conditions noted are these: cited from earlier work. The text has this: (§1) In this panorama, lupin protein hydrolysates, obtained by treating the proteins with pepsin and trypsin, show synergistic hypocholesterolemic effects through the modulation of both HMGCoAR and PCSK9 targets. […] In parallel, we have also predicted by in silico experiments that T9 had the potential capability of inhibiting the HMGCoAR activity.

For series [2], the system named is PCSK9-LDLR protein–protein interaction. The conditions noted are these: ref [15]; cited from earlier work.
Description: as §1

The next series relates to LDLR in HepG2 cells. The conditions noted are these: ref [16]; cited from earlier work. From the text: In this panorama, lupin protein hydrolysates, obtained by treating the proteins with pepsin and trypsin, show synergistic hypocholesterolemic effects through the modulation of both HMGCoAR and PCSK9 targets. […] Furthermore, these lupin hydrolysates impair the protein–protein interaction (PPI) betwe ... || Taking into account all this information, it is possible to affirm that there is an interesting similarity between the hypocholesterolemic behaviors of T9 and P5.

A further series has as its system HMGCoAR protein levels. The conditions noted are these: reference not given; presumably ref [16]; cited from earlier work. From the text:
(§2) Taking into account all this information, it is possible to affirm that there is an interesting similarity between the hypocholesterolemic behaviors of T9 and P5.

The next series concerns HNF-1α. The conditions noted are these: ref [16]; cited from earlier work.
Description: as §2

The test system of series [3] is SREBP-2 transcription factor. The conditions noted are these: ref [16]; cited from earlier work.
Description: as §2

The mark [4] stands for this setting: soybean glycinin peptides, ref [19],[20],[21], read-out: IC50, HMGCoAR activity.
[5] abbreviates: lupin β-conglutin peptides (pepsin), in vitro, ref [16],[18], read-out: IC50, HMGCoAR activity.

On to “IAVPTGVA [soybean peptide from glycinin hydrolysis]”, for which the IC50 in the series with HMGCoAR (setting [4]) is 247 µM.

With “YVVNPDNNEN [soybean peptide from β-conglycinin]”, the IC50 in the series with HMGCoAR (soybean β-conglycinin peptides, ref [19],[20],[21], read-out: IC50, HMGCoAR activity) is 200 µM.

For the molecule “IAVPGEVA [soybean peptide from glycinin hydrolysis]”, the IC50 with HMGCoAR (setting [4]) is 222 µM.

As for `COc1ccc2cc3[n+](cc2c1OC)CCc1cc2c(cc1-3)OCO2` [berberine], the “PCSK9 pathway (in words)” value in the series with PCSK9 (ref [14]) is listed as “modulate the PCSK9 pathway”.

As for VGVL, in the series with HMGCoAR (amaranth peptide, ref [6], read-out: concentration inhibiting HMGCoAR by 50%), the IC50 was 51.9 µM. For the same molecule, at HMGCoAR (amaranth protein hydrolysis peptides, ref [6]), the “HMGCoAR inhibition (in words)” value is “direct inhibition of the reductase activity”.

Take “LPYP [soybean peptide from glycinin hydrolysis]”: the IC50 on HMGCoAR (setting [4]) was 300 µM.

“LTFPGSAED [P7, absorbable peptide deriving from hydrolysis of lupin β-conglutin with pepsin]”: the IC50 with HMGCoAR (setting [5]) is 68.4 µM.

For “LILPKHSDAD [P5, absorbable peptide deriving from hydrolysis of lupin β-conglutin with pepsin]”, the IC50 in the series with HMGCoAR (setting [5]) was 147 µM. Besides, the “ability of HepG2 cells to clear / absorb extracellular LDL (in words)” value in series [1] (HepG2 cells, ref [15]) was “increased ability of HepG2 cells to clear extracellular LDL”. The “capacity of HepG2 cells to clear LDL (in words)” value in series [1] (ref [16]) is “enhanced capacity of HepG2 cells to clear LDL from the extracellular space”. The “effect on PPI between PCSK9 and LDLR (in words)” value in series [2] was “able to affect the PPI between PCSK9 and the LDLR”. Besides, the “LDLR protein levels (in words)” value in the series with LDLR in HepG2 cells is listed as “increase of the LDLR protein levels”. For the same molecule, in the series with HMGCoAR protein levels, the “HMGCoAR protein levels (in words)” value is reported as “does not diminish the HMGCoAR protein levels”. In the series with HNF-1α, the “HNF-1α level (in words)” value was “decrease of HNF-1α”. Besides, in series [3], the “SREBP-2 transcription factor activation (in words)” value is recorded as “augmentation of the SREBP-2 transcription factor activation”. Also, in the series with PCSK9 (ref [16]), the “PCSK9-WT protein level (in words)” value was “decrease of PCSK9-WT protein level” and the “selectivity, PCSK9-WT pathway modulation (in words)” value is given as “selective toward the PCSK9-WT pathway modulation”.

As to “YDFYPSSTKDQQS [P3, absorbable peptide deriving from hydrolysis of lupin β-conglutin with pepsin]”, the IC50 in the series with HMGCoAR (setting [5]) was 70 µM.
